IC50 data for 27 compounds are collected here from US20250282768A1 (Janssen Pharmaceutica NV, priority 2022, published 2025).

The assay has as its system p-IKKa levels in L363 (NIK translocated multiple myeloma) cells. As to the kind of experiment: Assay 2: Effect of compounds on p-IKKa levels in L363 (NIK translocated multiple myeloma) cells. The assay is classed as cell-based. Conditions: Homo sapiens, L-363, 6 h, read-out: Assay 2 IC50 (nM), p-IKKa (Ser 176/180) in BAFF stimulated L363 cells with MG132, 6 h; average if tested more than once. The method in brief: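 Read-out is p-IKKa Ser176/180 by AlphaLISA SureFire in lysates. Cells were BAFF-primed (250 ng/ml) overnight or left unstimulated, then exposed 6 h at 37 °C to compound with MG132 (10 μM), 0.3% DMSO. IC50 from sigmoidal curve fit, normalized between stimulated and unstimulated controls.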

For `CN1CC[C@@](O)(c2cc(-c3cccc(-c4ccnc(N[C@H](CO)c5ccccn5)n4)n3)no2)C1=O` [Example 388, (R)-3-Hydroxy-3-(3-(6-(2-(((S)-2-hydroxy-1-(pyridin-2-yl)ethyl)amino)pyrimidin-4-yl)pyridin-2-yl)isoxazol-5-yl)-1-methylpyrrolidin-2-one], the IC50 fell in the range of 50 to 500 nM.
On to `CCC(Nc1nccc(-c2cccc(-c3cc([C@]4(O)CCN(C)C4=O)on3)n2)n1)c1ccn(C)n1` (stereo partly drawn) [Example 389, (3R)-3-Hydroxy-1-methyl-3-(3-(6-(2-((1-(1-methyl-1H-pyrazol-3-yl)propyl)amino)pyrimidin-4-yl)pyridin-2-yl)isoxazol-5-yl)pyrrolidin-2-one], for which the IC50 lay within 50 to 500 nM.
`CN1CC[C@@](O)(c2cc(-c3cccc(-c4ccnc(NC(c5ccccn5)C5CC5)n4)n3)no2)C1=O` (stereo partly drawn) [Example 390, (3R)-3-(3-(6-(2-((Cyclopropyl(pyridin-2-yl)methyl)amino)pyrimidin-4-yl)pyridin-2-yl)isoxazol-5-yl)-3-hydroxy-1-methylpyrrolidin-2-one]: the IC50 is > 500 nM.
`CCC(Nc1nccc(-c2cccc(-c3cc([C@]4(O)CCN(C)C4=O)on3)n2)n1)c1ccn(CC)n1` (stereo partly drawn) [Example 391, (3R)-3-(3-(6-(2-((1-(1-Ethyl-1H-pyrazol-3-yl)propyl)amino)pyrimidin-4-yl)pyridin-2-yl)isoxazol-5-yl)-3-hydroxy-1-methylpyrrolidin-2-one]: the IC50 is > 500 nM.
Take `COc1cn(C)nc1C(C)Nc1nccc(-c2cccc(-c3cc([C@]4(O)CCN(C)C4=O)on3)n2)n1` (stereo partly drawn) [Example 392, (3R)-3-Hydroxy-3-(3-(6-(2-((1-(4-methoxy-1-methyl-1H-pyrazol-3-yl)ethyl)amino)pyrimidin-4-yl)pyridin-2-yl)isoxazol-5-yl)-1-methylpyrrolidin-2-one]: the IC50 was > 500 nM.
Consider `C[C@@H](Nc1nccc(-c2cccc(-c3cc([C@]4(O)CCN(C)C4=O)on3)n2)n1)c1cn2ccccc2n1` [Example 393, (R)-3-Hydroxy-3-(3-(6-(2-(((R)-1-(imidazo[1,2-a]pyridin-2-yl)ethyl)amino)pyrimidin-4-yl)pyridin-2-yl)isoxazol-5-yl)-1-methylpyrrolidin-2-one], for which the IC50 is 50 to 500 nM.
As for `C[C@H](Nc1nccc(-c2cccc(-c3cc([C@]4(O)CCN(C)C4=O)on3)n2)n1)c1cn2ccccc2n1` [Example 394, (R)-3-Hydroxy-3-(3-(6-(2-(((S)-1-(imidazo[1,2-a]pyridin-2-yl)ethyl)amino)pyrimidin-4-yl)pyridin-2-yl)isoxazol-5-yl)-1-methylpyrrolidin-2-one], the IC50 is > 500 nM.
Take `CC(Nc1nccc(-c2cccc(-c3cc([C@]4(O)CCN(C)C4=O)on3)n2)n1)c1nnc2ncccn12` (stereo partly drawn) [Example 395, (3R)-3-(3-(6-(2-((1-([1,2,4]Triazolo[4,3-a]pyrimidin-3-yl)ethyl)amino)pyrimidin-4-yl)pyridin-2-yl)isoxazol-5-yl)-3-hydroxy-1-methylpyrrolidin-2-one]: the IC50 was in the range of 50 to 500 nM.
As to `CN(C)C[C@H](Nc1nccc(-c2cccc(-c3cc([C@]4(O)CCN(C)C4=O)on3)n2)n1)c1ccccc1` [Example 396, (R)-3-(3-(6-(2-(((R)-2-(Dimethylamino)-1-phenylethyl)amino)pyrimidin-4-yl)pyridin-2-yl)isoxazol-5-yl)-3-hydroxy-1-methylpyrrolidin-2-one], the IC50 was > 500 nM.
For the compound `CN(C)C[C@@H](Nc1nccc(-c2cccc(-c3cc([C@]4(O)CCN(C)C4=O)on3)n2)n1)c1ccccc1` [Example 397, (R)-3-(3-(6-(2-(((S)-2-(Dimethylamino)-1-phenylethyl)amino)pyrimidin-4-yl)pyridin-2-yl)isoxazol-5-yl)-3-hydroxy-1-methylpyrrolidin-2-one], the IC50 is > 500 nM.
The result for `CN1CC[C@@](O)(c2cc(-c3cccc(-c4ccnc(Nc5nccn5C)n4)n3)no2)C1=O` [Example 398, (R)-3-Hydroxy-1-methyl-3-(3-(6-(2-((1-methyl-1H-imidazol-2-yl)amino)pyrimidin-4-yl)pyridin-2-yl)isoxazol-5-yl)pyrrolidin-2-one] reads > 500 nM; that for `CN1CC[C@@](O)(c2cc(-c3cccc(-c4ccnc(Nc5cn(CCF)cn5)n4)n3)no2)C1=O` [Example 399, (R)-3-(3-(6-(2-((1-(2-Fluoroethyl)-1H-imidazol-4-yl)amino)pyrimidin-4-yl)pyridin-2-yl)isoxazol-5-yl)-3-hydroxy-1-methylpyrrolidin-2-one], < 50 nM; that for `CCn1cc(Nc2nccc(-c3cccc(-n4cc([C@]5(O)CCN(C)C5=O)nn4)n3)n2)c(C)n1` [Example 402, (R)-3-(1-(6-(2-((1-Ethyl-3-methyl-1H-pyrazol-4-yl)amino)pyrimidin-4-yl)pyridin-2-yl)-1H-1,2,3-triazol-4-yl)-3-hydroxy-1-methylpyrrolidin-2-one], < 50 nM.
In the case of `CN1CC[C@@](O)(c2cn(-c3cccc(-c4ccnc(Nc5cnn(CC(F)(F)F)c5)n4)n3)nn2)C1=O` [Example 403, (R)-3-Hydroxy-1-methyl-3-(1-(6-(2-((1-(2,2,2-trifluoroethyl)-1H-pyrazol-4-yl)amino)pyrimidin-4-yl)pyridin-2-yl)-1H-1,2,3-triazol-4-yl)pyrrolidin-2-one], the IC50 is < 50 nM.
In the case of `CN1CC[C@@](O)(c2cc(-c3cccc(-c4ccnc(Nc5cnn6c5CCCC6)n4)n3)on2)C1=O` [Example 406, (R)-3-Hydroxy-1-methyl-3-(5-(6-(2-((4,5,6,7-tetrahydropyrazolo[1,5-a]pyridin-3-yl)amino)pyrimidin-4-yl)pyridin-2-yl)isoxazol-3-yl)pyrrolidin-2-one], the IC50 was < 50 nM.
For `CN1CC[C@@](O)(c2cc(-c3cccc(-c4ccnc(Nc5cnn(C)c5Cl)n4)n3)on2)C1=O` [Example 407, (R)-3-(5-(6-(2-((5-Chloro-1-methyl-1H-pyrazol-4-yl)amino)pyrimidin-4-yl)pyridin-2-yl)isoxazol-3-yl)-3-hydroxy-1-methylpyrrolidin-2-one], the IC50 is < 50 nM.
Regarding `Cc1cc(Nc2nccc(-c3cccc(-c4cc([C@@]5(O)C(=O)N(C)CC5(F)F)on4)n3)n2)ccn1` [Example 408, (R)-4,4-Difluoro-3-hydroxy-1-methyl-3-(3-(6-(2-((2-methylpyridin-4-yl)amino)pyrimidin-4-yl)pyridin-2-yl)isoxazol-5-yl)pyrrolidin-2-one], the IC50 is < 50 nM.
With `CN1CC(F)(F)[C@@](O)(c2cc(-c3cccc(-c4ccnc(Nc5cnn(C)c5Cl)n4)n3)no2)C1=O` [Example 409], the IC50 was < 50 nM.
On to `CCn1ccc(Nc2nccc(-c3cccc(-c4cc([C@]5(O)CCN(C)C5=O)on4)n3)n2)n1` [Example 410, (R)-3-(3-(6-(2-((1-Ethyl-1H-pyrazol-3-yl)amino)pyrimidin-4-yl)pyridin-2-yl)isoxazol-5-yl)-3-hydroxy-1-methylpyrrolidin-2-one], for which the IC50 is < 50 nM.
Regarding `CN1CC[C@@](O)(c2cc(-c3cccc(-c4ccnc(Nc5cc(OC(F)F)n(C)n5)n4)c3)no2)C1=O` [Example 412, (R)-3-(3-(3-(2-((5-(Difluoromethoxy)-1-methyl-1H-pyrazol-3-yl)amino)pyrimidin-4-yl)phenyl)isoxazol-5-yl)-3-hydroxy-1-methylpyrrolidin-2-one], the IC50 fell in the range of 50 to 500 nM.
As for `CN1CC[C@@](O)(c2cc(-c3cccc(-c4ccnc(Nc5cn(CC(F)F)nc5OC5CC5)n4)c3)no2)C1=O` [Example 413, (R)-3-(3-(3-(2-((3-Cyclopropoxy-1-(2,2-difluoroethyl)-1H-pyrazol-4-yl)amino)pyrimidin-4-yl)phenyl)isoxazol-5-yl)-3-hydroxy-1-methylpyrrolidin-2-one], the IC50 was in the range of 50 to 500 nM.
To `CN1CC[C@@](O)(c2cc(-c3cccc(-c4ccnc(Nc5cc(N)n(C)n5)n4)c3)no2)C1=O` [Example 414, (R)-3-(3-(3-(2-((5-Amino-1-methyl-1H-pyrazol-3-yl)amino)pyrimidin-4-yl)phenyl)isoxazol-5-yl)-3-hydroxy-1-methylpyrrolidin-2-one] belongs > 500 nM; to `CN1CC[C@@](O)(c2cc(-c3cccc(-c4ccnc(Nc5cn(C)nc5N)n4)c3)no2)C1=O` [Example 415, (R)-3-(3-(3-(2-((3-Amino-1-methyl-1H-pyrazol-4-yl)amino)pyrimidin-4-yl)phenyl)isoxazol-5-yl)-3-hydroxy-1-methylpyrrolidin-2-one], > 500 nM; to `CN1CC[C@@](O)(c2cc(-c3cccc(-c4ccnc(Nc5cc6n(n5)CCNC6)n4)c3)no2)C1=O` [Example 416, (R)-3-Hydroxy-1-methyl-3-(3-(3-(2-((4,5,6,7-tetrahydropyrazolo[1,5-a]pyrazin-2-yl)amino)pyrimidin-4-yl)phenyl)isoxazol-5-yl)pyrrolidin-2-one], > 500 nM.
Turning to `CN1CC[C@@](O)(c2cc(-c3cccc(-c4ccnc(N5CCn6nc(N)cc6C5)n4)c3)no2)C1=O` [Example 417, (R)-3-(3-(3-(2-(2-Amino-6,7-dihydropyrazolo[1,5-a]pyrazin-5(4H)-yl)pyrimidin-4-yl)phenyl)isoxazol-5-yl)-3-hydroxy-1-methylpyrrolidin-2-one], the IC50 was > 500 nM.
As to `CN1CC[C@@](O)(c2cc(-c3cccc(-c4ccnc(Nc5nn(C)c6c5CNC6)n4)c3)no2)C1=O` [Example 418, (R)-3-Hydroxy-1-methyl-3-(3-(3-(2-((1-methyl-1,4,5,6-tetrahydropyrrolo[3,4-c]pyrazol-3-yl)amino)pyrimidin-4-yl)phenyl)isoxazol-5-yl)pyrrolidin-2-one], the IC50 is > 500 nM.
Take `CN1CC[C@@](O)(c2cc(-c3cccc(-c4ccnc(Nc5cnn6c5CNCC6)n4)c3)no2)C1=O` [Example 419, (R)-3-Hydroxy-1-methyl-3-(3-(3-(2-((4,5,6,7-tetrahydropyrazolo[1,5-a]pyrazin-3-yl)amino)pyrimidin-4-yl)phenyl)isoxazol-5-yl)pyrrolidin-2-one]: the IC50 was > 500 nM.
